The values below come from US12139520B2 (priority 2020, dated 2024).

Bridge positions count the residues as written; N and C are the ends. Square brackets hold non-standard residues; d marks the D form. Peptide text beside a SMILES is read from it. Hyp = O=C(O)[C@@H]1C[C@@H](O)CN1

In one series the target is T1, hAMY3 receptor (Homo sapiens, UniProt O60896+P30988).
T1 sequence (P30988 25-474): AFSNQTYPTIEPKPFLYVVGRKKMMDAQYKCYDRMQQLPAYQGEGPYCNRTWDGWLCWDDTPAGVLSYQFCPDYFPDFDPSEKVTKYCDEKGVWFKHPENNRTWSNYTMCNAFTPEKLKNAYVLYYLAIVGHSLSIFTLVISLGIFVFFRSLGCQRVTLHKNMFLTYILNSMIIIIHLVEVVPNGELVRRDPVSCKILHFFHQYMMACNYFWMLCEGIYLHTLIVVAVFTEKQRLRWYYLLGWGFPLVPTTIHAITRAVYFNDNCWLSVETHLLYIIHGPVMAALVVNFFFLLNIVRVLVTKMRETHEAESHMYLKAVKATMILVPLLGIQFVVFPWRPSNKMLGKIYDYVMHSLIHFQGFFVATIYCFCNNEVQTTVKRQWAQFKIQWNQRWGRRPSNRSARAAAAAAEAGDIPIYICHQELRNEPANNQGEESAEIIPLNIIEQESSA
T1 sequence (O60896 24-148 partner): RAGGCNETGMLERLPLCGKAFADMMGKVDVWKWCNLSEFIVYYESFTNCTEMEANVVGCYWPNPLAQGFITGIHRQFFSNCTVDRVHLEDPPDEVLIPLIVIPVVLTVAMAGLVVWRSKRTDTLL
The experiment in a line: cAMP assay for in vitro receptor activation, hAMY3-R. The format is cell-based. Particulars: cAMP assay, hAMY3 receptor; read-out: hAMY3R EC50. The method, boiled down: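 Accumulated cAMP was detected by time-resolved FRET one hour after reagent addition. Beforehand, hAMY3-R-overexpressing monoclonal cells (2000/well, DPBS, 0.05% casein, 0.5 mM IBMX) received graded doses of compound for 30 min at room temperature; human amylin served as positive control.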
Background: cAMP levels reflect the balance of adenylyl cyclase and phosphodiesterase activity.

A short description of series [1]: Physical stability of peptide analogues (Thioflavin T fibrillation). It is filed as physicochemical. To be noted: maximum ThT signal normalized between hAMY maximum and buffer background; 40° C., shaking, four days; pH 7 per table title. An outline of the steps: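 Samples are stressed at 40 °C for four days, being shaken at 700 rpm before each 10-min fluorescence reading of 4 μM Thioflavin T. Buffers were pH 4 acetate or pH 7 phosphate. Reported values are smoothed maximum ThT signals as a percentage of the hAMY-to-background range.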

A word on the EC50: it is the concentration that produces a half-maximal response. As to `CC[C@H](C)[C@H](NC(=O)[C@H](CCCCN)NC(=O)[C@@H](NC(=O)[C@H](CCCNC(=N)N)NC(=O)[C@@H]1CCCN1C(=O)[C@H](C)NC(=O)[C@@H](NC(=O)[C@H](CC(N)=O)NC(=O)[C@H](CC(=O)O)NC(=O)[C@H](CCCCN)NC(=O)[C@H](CC(=O)O)NC(=O)[C@H](CCCCN)NC(=O)[C@H](CC(=O)O)NC(=O)[C@@H](NC(=O)[C@H](Cc1ccccc1)NC(=O)[C@H](CCC(N)=O)NC(=O)[C@H](Cc1ccc(O)cc1)NC(=O)[C@@H](NC(=O)[C@H](CCC(N)=O)NC(=O)[C@H](Cc1c[nH]cn1)NC(=O)[C@H](C)NC(=O)[C@H](CC(C)C)NC(=O)[C@H](CCCNC(=N)N)NC(=O)[C@H](CCC(N)=O)NC(=O)[C@@H](NC(=O)[C@@H](NC(=O)[C@@H]1CSSC[C@H](NC(=O)CN)C(=O)N[C@@H](CCCNC(=N)N)C(=O)N[C@@H]([C@@H](C)O)C(=O)NCC(=O)N[C@@H]([C@@H](C)O)C(=O)N1)[C@@H](C)O)C(C)C)[C@@H](C)CC)[C@@H](C)O)C(C)C)[C@@H](C)O)C(=O)NCC(=O)N1CCC[C@H]1C(=O)N[C@@H](CCC(N)=O)C(=O)NCC(=O)N1C[C@H](O)C[C@H]1C(N)=O` [compound 161] (H-GCRTGTCTVQRLAHQIYQFTDKDKDNVAPRTKIGPQG[Hyp]-NH2; disulfide 2-7; N-terminus assumed), at hAMY3 receptor, the EC50 is 0.051 nM. Further, the “Max ThT signal (%)” value in series [1] came to 14.300%.
Regarding `CC[C@H](C)[C@H](NC(=O)[C@H](CCC(N)=O)NC(=O)[C@H](Cc1c[nH]cn1)NC(=O)[C@H](C)NC(=O)[C@H](CC(C)C)NC(=O)[C@H](CCCNC(=N)N)NC(=O)[C@H](CCC(N)=O)NC(=O)[C@@H](NC(=O)[C@@H](NC(=O)[C@@H]1CSSC[C@H](NC(=O)CN)C(=O)N[C@@H](CCCNC(=N)N)C(=O)N[C@@H]([C@@H](C)O)C(=O)NCC(=O)N[C@@H]([C@@H](C)O)C(=O)N1)[C@@H](C)O)C(C)C)C(=O)N[C@@H](Cc1ccc(O)cc1)C(=O)N[C@@H](CCC(N)=O)C(=O)N[C@@H](Cc1ccccc1)C(=O)N[C@H](C(=O)N[C@@H](CC(=O)O)C(=O)N[C@@H](CCCCN)C(=O)N[C@@H](CC(=O)O)C(=O)N[C@@H](CCCCN)C(=O)N[C@@H](CC(=O)O)C(=O)N[C@@H](CC(N)=O)C(=O)N[C@H](C(=O)N[C@@H](C)C(=O)N1CCC[C@H]1C(=O)N[C@@H](CCCNC(=N)N)C(=O)N[C@@H](CO)C(=O)N[C@@H](CC(N)=O)C(=O)N[C@H](C(=O)NCC(=O)N1CCC[C@H]1C(=O)N[C@@H](CCC(N)=O)C(=O)NCC(=O)N[C@@H](Cc1ccc(O)cc1)C(N)=O)C(C)C)C(C)C)[C@@H](C)O` [compound 138] (H-GCRTGTCTVQRLAHQIYQFTDKDKDNVAPRSNVGPQGY-NH2; disulfide 2-7; N-terminus assumed), the EC50 on hAMY3 receptor came to 0.035 nM. Also, in series [1], the “Max ThT signal (%)” value came out at 6.800%.
Turning to `CC[C@H](C)[C@H](NC(=O)[C@H](CCC(N)=O)NC(=O)[C@H](Cc1c[nH]cn1)NC(=O)[C@H](C)NC(=O)[C@H](CC(C)C)NC(=O)[C@H](CCCNC(=N)N)NC(=O)[C@H](CCC(N)=O)NC(=O)[C@@H](NC(=O)[C@@H](NC(=O)[C@@H]1CSSC[C@H](NC(=O)[C@@H](N)CCCCN)C(=O)N[C@@H](CCCNC(=N)N)C(=O)N[C@@H](CCSC)C(=O)NCC(=O)N[C@@H]([C@@H](C)O)C(=O)N1)[C@@H](C)O)C(C)C)C(=O)N[C@@H](Cc1ccc(O)cc1)C(=O)N[C@@H](CCC(N)=O)C(=O)N[C@@H](Cc1ccccc1)C(=O)N[C@H](C(=O)N[C@@H](CC(=O)O)C(=O)N[C@@H](CCCCN)C(=O)N[C@@H](CC(=O)O)C(=O)N[C@@H](CCCCN)C(=O)N[C@@H](CC(=O)O)C(=O)N[C@@H](CC(N)=O)C(=O)N[C@H](C(=O)N[C@@H](C)C(=O)N1CCC[C@H]1C(=O)N[C@@H](CCCNC(=N)N)C(=O)N[C@@H](CO)C(=O)N[C@@H](CCCCN)C(=O)N[C@H](C(=O)N[C@@H](CO)C(=O)N1CCC[C@H]1C(=O)N[C@@H](CCC(N)=O)C(=O)N[C@H](C(=O)N1C[C@H](O)C[C@H]1C(N)=O)[C@@H](C)O)[C@@H](C)CC)C(C)C)[C@@H](C)O` [compound 194] (H-KCRMGTCTVQRLAHQIYQFTDKDKDNVAPRSKISPQT[Hyp]-NH2; disulfide 2-7; N-terminus assumed), at hAMY3 receptor, the EC50 is 0.112 nM. For the same molecule, in series [1], the “Max ThT signal (%)” value came to 6.000%.
